Data reported in publication PMC9898036, “VIP152 is a selective CDK9 inhibitor with pre-clinical in vitro and in vivo efficacy in chronic lymphocytic leukemia” (Leukemia, 2022).
Read-outs that look alike come from different tables or passages of the source.

Legend:
Test in all cases: DiscoverX KINOMEscan kinase profiling (468 assays)
Format in all cases: binding
human kinome [1] = molecular target: human kinome (Homo sapiens, UniProt Q15569); details: kinase TESK1 (Entrez TESK1); compound concentration 1000 nM; read-out: Percent Control
Outline: (§1)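 VIP152 was run in DMSO, alongside a DMSO control. Readout was qPCR of DNA-tagged kinase still bound to bead-immobilized biotinylated kinase ligands after compound competition.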

human kinome [2] = molecular target: human kinome (Homo sapiens, UniProt Q14680); details: MELK; 100 nM; read-out: Percent Control
Outline: as §1

human kinome [3] = molecular target: human kinome (Homo sapiens, UniProt Q9NSY1); details: BIKE (Entrez BMP2K); 100 nM; read-out: Percent Control
Outline: as §1

human kinome [4] = molecular target: human kinome (Homo sapiens, UniProt P29597); details: compound concentration 1000 nM, read-out: Percent Control
Chain of human kinome (Homo sapiens, UniProt P29597) (P29597 whole entry): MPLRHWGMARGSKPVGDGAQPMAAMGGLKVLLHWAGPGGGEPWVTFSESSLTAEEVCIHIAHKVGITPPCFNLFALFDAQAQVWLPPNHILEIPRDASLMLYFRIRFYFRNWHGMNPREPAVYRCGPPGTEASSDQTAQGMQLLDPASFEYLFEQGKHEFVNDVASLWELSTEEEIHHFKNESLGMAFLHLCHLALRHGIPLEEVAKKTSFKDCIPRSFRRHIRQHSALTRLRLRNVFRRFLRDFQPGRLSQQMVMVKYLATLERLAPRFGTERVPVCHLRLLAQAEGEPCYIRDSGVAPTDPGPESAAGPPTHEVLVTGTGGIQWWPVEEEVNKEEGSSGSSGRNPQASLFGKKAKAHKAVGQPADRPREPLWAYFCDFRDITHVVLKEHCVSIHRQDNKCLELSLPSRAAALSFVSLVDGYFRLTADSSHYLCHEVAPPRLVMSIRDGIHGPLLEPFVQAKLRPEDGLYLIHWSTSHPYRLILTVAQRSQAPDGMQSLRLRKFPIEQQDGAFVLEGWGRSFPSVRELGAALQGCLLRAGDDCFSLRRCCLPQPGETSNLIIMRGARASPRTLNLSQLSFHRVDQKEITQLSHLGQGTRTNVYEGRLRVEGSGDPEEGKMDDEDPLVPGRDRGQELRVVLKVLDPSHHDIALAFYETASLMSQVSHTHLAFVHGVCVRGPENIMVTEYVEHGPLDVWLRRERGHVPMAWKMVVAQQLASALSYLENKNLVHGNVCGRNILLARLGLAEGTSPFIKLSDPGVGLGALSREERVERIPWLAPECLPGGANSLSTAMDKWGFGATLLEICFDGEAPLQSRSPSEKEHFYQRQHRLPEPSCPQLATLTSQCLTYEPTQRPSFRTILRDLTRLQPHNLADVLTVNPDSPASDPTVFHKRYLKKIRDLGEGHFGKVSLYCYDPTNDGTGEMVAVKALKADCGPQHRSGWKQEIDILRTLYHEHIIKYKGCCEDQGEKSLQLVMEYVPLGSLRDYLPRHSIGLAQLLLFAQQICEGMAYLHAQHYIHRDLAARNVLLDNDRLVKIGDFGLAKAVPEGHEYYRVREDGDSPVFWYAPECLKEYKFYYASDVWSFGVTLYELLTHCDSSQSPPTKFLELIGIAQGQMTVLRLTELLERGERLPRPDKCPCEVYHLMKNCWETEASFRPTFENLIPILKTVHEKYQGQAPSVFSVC
Outline: as §1

human kinome [5] = molecular target: human kinome (Homo sapiens, UniProt P06239); details: LCK; 100 nM; read-out: Percent Control
Outline: as §1

human kinome [6] = molecular target: human kinome (Homo sapiens, UniProt P29323); details: EPHB2; 100 nM; read-out: Percent Control
Outline: as §1

human kinome [7] = molecular target: human kinome (Homo sapiens, UniProt P19784); details: CSNK2A2; 100 nM; read-out: Percent Control
Outline: as §1

human kinome [8] = molecular target: human kinome (Homo sapiens, UniProt P31152); details: ERK4 (Entrez MAPK4); 100 nM; read-out: Percent Control
Outline: as §1

human kinome [9] = molecular target: human kinome (Homo sapiens, UniProt Q15831); details: LKB1 (Entrez STK11); 100 nM; read-out: Percent Control
Outline: as §1

human kinome [10] = molecular target: human kinome (Homo sapiens, UniProt O00141); details: kinase SGK (Entrez SGK1); compound concentration 1000 nM; read-out: Percent Control
Outline: as §1

human kinome [11] = molecular target: human kinome (Homo sapiens, UniProt P54753); details: EPHB3; 100 nM; read-out: Percent Control
Outline: as §1

human kinome [12] = molecular target: human kinome (Homo sapiens, UniProt P35968); details: kinase VEGFR2 (Entrez KDR); compound concentration 1000 nM; read-out: Percent Control
Outline: as §1

human kinome [13] = molecular target: human kinome (Homo sapiens, UniProt O15111); details: IKK-alpha (Entrez CHUK); 100 nM; read-out: Percent Control
Outline: as §1

human kinome [14] = molecular target: human kinome (Homo sapiens, UniProt Q8IU85); details: CAMK1D; 100 nM; read-out: Percent Control
Outline: as §1

human kinome [15] = molecular target: human kinome (Homo sapiens, UniProt O60674); details: JAK2(JH1domain-catalytic); 100 nM; read-out: Percent Control
Outline: as §1

human kinome [16] = molecular target: human kinome (Homo sapiens, UniProt Q96SB4); details: kinase SRPK1 (Entrez SRPK1); compound concentration 1000 nM; read-out: Percent Control
Outline: as §1

human kinome [17] = molecular target: human kinome (Homo sapiens, UniProt P07333); details: 100 nM, read-out: Percent Control
Chain of human kinome (Homo sapiens, UniProt P07333) (P07333 20-972): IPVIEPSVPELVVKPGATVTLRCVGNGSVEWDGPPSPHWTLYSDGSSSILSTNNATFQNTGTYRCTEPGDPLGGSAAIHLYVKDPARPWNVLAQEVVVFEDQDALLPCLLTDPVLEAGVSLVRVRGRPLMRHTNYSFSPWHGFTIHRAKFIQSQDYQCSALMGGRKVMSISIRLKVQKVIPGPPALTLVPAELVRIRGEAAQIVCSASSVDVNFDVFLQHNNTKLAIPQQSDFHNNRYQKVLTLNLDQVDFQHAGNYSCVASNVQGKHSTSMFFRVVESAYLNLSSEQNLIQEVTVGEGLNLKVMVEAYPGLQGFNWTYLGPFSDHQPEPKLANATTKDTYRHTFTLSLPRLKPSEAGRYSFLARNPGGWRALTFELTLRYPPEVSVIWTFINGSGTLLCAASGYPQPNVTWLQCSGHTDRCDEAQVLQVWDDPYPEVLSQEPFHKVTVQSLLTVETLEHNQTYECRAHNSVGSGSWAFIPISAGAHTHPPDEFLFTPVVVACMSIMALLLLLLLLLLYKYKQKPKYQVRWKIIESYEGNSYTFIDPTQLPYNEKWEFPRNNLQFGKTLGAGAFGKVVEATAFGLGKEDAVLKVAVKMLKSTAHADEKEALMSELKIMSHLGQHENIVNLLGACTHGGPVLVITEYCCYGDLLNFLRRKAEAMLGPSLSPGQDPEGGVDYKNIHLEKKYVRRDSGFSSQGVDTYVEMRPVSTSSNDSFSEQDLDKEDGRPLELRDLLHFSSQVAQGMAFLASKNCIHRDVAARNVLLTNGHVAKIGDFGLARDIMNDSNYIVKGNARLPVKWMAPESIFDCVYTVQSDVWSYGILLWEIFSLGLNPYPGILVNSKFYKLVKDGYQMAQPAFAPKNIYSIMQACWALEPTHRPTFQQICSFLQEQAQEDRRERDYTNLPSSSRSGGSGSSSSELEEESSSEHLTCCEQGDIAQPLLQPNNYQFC
Outline: as §1

human kinome [18] = molecular target: human kinome (Homo sapiens, UniProt Q9BVS4); details: kinase RIOK2 (Entrez RIOK2); compound concentration 1000 nM; read-out: Percent Control
Outline: as §1

human kinome [19] = molecular target: human kinome (Homo sapiens, UniProt Q6XUX3); details: kinase RIPK5 (Entrez DSTYK); compound concentration 1000 nM; read-out: Percent Control
Outline: as §1

human kinome [20] = molecular target: human kinome (Homo sapiens, UniProt P42345); details: MTOR; 100 nM; read-out: Percent Control
Outline: as §1

human kinome [21] = molecular target: human kinome (Homo sapiens, UniProt P51956); details: read-out: Percent Control
Outline: as §1

human kinome [22] = molecular target: human kinome (Homo sapiens, UniProt P08631); details: HCK; 100 nM; read-out: Percent Control
Outline: as §1

human kinome [23] = molecular target: human kinome (Homo sapiens, UniProt Q9NQU5); details: read-out: Percent Control
Chain of human kinome (Homo sapiens, UniProt Q9NQU5) (Q9NQU5 whole entry): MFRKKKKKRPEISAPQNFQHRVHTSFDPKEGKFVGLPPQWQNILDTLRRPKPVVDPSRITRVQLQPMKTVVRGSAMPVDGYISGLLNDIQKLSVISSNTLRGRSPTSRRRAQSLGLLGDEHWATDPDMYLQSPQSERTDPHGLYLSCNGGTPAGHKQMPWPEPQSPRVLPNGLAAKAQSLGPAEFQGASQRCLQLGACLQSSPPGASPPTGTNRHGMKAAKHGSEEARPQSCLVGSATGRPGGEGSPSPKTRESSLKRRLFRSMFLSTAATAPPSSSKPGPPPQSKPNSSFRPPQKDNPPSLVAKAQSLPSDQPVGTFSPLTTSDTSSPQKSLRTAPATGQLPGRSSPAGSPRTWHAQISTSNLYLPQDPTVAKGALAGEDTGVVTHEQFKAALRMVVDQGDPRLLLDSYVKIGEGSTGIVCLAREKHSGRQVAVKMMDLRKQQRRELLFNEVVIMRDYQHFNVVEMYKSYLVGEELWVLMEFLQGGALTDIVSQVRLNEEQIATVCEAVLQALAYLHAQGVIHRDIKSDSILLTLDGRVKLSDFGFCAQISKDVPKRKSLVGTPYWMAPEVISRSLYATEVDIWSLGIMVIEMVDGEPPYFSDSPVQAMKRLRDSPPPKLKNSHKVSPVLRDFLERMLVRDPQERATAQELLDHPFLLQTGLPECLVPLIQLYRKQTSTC
Outline: as §1

human kinome [24] = molecular target: human kinome (Homo sapiens, UniProt Q9UEW8); details: kinase STK39 (Entrez STK39); compound concentration 1000 nM; read-out: Percent Control
Outline: as §1

human kinome [25] = molecular target: human kinome (Homo sapiens, UniProt O14578); details: CIT; 100 nM; read-out: Percent Control
Outline: as §1

human kinome [26] = molecular target: human kinome (Homo sapiens, UniProt Q9NYY3); details: read-out: Percent Control
Chain of human kinome (Homo sapiens, UniProt Q9NYY3) (Q9NYY3 whole entry): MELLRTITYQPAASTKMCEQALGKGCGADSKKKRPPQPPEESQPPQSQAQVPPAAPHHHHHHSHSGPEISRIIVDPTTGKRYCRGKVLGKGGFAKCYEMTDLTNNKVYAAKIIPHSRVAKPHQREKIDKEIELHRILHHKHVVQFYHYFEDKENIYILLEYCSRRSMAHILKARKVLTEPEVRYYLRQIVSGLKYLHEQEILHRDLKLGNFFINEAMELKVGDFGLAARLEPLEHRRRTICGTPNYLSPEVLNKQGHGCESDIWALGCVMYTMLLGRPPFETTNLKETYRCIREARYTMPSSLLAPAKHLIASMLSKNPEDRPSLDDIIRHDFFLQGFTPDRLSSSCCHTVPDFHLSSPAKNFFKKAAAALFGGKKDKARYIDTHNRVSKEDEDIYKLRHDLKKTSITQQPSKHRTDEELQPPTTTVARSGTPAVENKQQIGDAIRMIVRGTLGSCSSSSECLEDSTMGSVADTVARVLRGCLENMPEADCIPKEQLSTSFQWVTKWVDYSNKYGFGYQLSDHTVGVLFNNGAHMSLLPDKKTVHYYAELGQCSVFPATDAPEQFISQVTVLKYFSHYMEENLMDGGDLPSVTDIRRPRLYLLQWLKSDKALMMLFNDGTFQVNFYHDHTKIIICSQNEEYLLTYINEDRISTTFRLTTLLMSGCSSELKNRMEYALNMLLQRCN
Outline: as §1

human kinome [27] = molecular target: human kinome (Homo sapiens, UniProt Q15759); details: read-out: Percent Control
Chain of human kinome (Homo sapiens, UniProt Q15759) (Q15759 whole entry): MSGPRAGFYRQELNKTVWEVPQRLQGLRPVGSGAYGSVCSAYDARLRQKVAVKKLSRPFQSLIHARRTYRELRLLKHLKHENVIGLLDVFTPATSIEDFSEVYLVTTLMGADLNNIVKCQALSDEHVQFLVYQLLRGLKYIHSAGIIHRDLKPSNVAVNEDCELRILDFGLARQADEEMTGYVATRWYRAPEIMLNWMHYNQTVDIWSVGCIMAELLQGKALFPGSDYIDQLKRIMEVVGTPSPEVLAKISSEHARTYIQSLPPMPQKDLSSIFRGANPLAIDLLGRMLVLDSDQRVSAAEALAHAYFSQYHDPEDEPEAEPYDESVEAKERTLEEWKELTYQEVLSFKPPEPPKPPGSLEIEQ
Outline: as §1

human kinome [28] = molecular target: human kinome (Homo sapiens, UniProt P10721); details: 100 nM, read-out: Percent Control
Chain of human kinome (Homo sapiens, UniProt P10721) (P10721 26-976): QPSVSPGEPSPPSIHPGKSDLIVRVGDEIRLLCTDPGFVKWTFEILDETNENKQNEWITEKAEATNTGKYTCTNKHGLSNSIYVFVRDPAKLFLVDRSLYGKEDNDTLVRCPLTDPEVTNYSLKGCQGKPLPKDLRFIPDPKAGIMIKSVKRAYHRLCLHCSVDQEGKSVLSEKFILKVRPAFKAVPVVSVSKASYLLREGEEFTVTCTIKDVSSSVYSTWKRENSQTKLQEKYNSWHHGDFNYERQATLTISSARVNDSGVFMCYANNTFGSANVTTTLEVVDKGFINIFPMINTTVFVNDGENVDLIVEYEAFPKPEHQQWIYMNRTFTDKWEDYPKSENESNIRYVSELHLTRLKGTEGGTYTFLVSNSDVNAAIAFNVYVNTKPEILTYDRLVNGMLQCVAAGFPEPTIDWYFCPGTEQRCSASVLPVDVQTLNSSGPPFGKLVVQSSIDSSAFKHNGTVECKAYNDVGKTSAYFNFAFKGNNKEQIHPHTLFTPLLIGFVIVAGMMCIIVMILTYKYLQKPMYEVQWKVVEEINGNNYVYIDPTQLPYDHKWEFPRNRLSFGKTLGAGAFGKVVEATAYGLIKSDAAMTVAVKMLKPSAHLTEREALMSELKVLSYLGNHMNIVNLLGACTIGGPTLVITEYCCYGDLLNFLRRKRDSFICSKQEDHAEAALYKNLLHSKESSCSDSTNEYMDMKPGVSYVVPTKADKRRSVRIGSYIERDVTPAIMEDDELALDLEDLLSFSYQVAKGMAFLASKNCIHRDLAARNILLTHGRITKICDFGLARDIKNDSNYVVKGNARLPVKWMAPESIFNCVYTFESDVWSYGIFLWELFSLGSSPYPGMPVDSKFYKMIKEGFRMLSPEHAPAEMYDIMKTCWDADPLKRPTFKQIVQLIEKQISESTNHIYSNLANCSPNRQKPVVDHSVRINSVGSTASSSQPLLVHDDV
Outline: as §1

human kinome [29] = molecular target: human kinome (Homo sapiens, UniProt P17612); details: read-out: Percent Control
Outline: as §1

Structure (SMILES): COc1cc(F)ccc1-c1cc(Nc2cc(CS(C)(=N)=O)ccn2)ncc1F (stereo not shown) [VIP152]
- remaining binding at 1 µM (human kinome [1]): 92%
- remaining binding at 0.1 µM (human kinome [2]): 91%
- remaining binding at 0.1 µM (human kinome [3]): 100%
- remaining binding at 1 µM (human kinome [4]; kinase TYK2(JH1domain-catalytic) (Entrez TYK2)): 44%
- remaining binding at 1 µM (human kinome [4]; kinase TYK2(JH2domain-pseudokinase) (Entrez TYK2)): 4.8%
- remaining binding at 0.1 µM (human kinome [5]): 100%
- remaining binding at 0.1 µM (human kinome [6]): 100%
- remaining binding at 0.1 µM (human kinome [7]): 100%
- remaining binding at 0.1 µM (human kinome [8]): 100%
- remaining binding at 0.1 µM (human kinome [9]): 100%
- remaining binding at 1 µM (human kinome [10]): 83%
- remaining binding at 0.1 µM (human kinome [11]): 100%
- remaining binding at 1 µM (human kinome [12]): 55%
- remaining binding at 0.1 µM (human kinome [13]): 100%
- remaining binding at 0.1 µM (human kinome [14]): 100%
- remaining binding at 0.1 µM (human kinome [15]): 100%
- remaining binding at 1 µM (human kinome [16]): 91%
- remaining binding at 0.1 µM (human kinome [17]; CSF1R-autoinhibited): 95%
- remaining binding at 0.1 µM (human kinome [17]; CSF1R): 100%
- remaining binding at 1 µM (human kinome [18]): 77%
- remaining binding at 1 µM (human kinome [19]): 42%
- remaining binding at 0.1 µM (human kinome [20]): 59%
- remaining binding at 0.1 µM (human kinome [21]; NEK3, 100 nM): 98%
- remaining binding at 1 µM (human kinome [21]; kinase NEK3 (Entrez NEK3), compound concentration 1000 nM): 62%
- remaining binding at 0.1 µM (human kinome [22]): 97%
- remaining binding at 0.1 µM (human kinome [23]; PAK6, 100 nM): 100%
- remaining binding at 1 µM (human kinome [23]; kinase PAK6 (Entrez PAK6), compound concentration 1000 nM): 91%
- remaining binding at 1 µM (human kinome [24]): 92%
- remaining binding at 0.1 µM (human kinome [25]): 100%
- remaining binding at 0.1 µM (human kinome [26]; PLK2, 100 nM): 100%
- remaining binding at 1 µM (human kinome [26]; kinase PLK2 (Entrez PLK2), compound concentration 1000 nM): 83%
- remaining binding at 1 µM (human kinome [27]; kinase p38-beta (Entrez MAPK11), compound concentration 1000 nM): 100%
- remaining binding at 0.1 µM (human kinome [27]; p38-beta (Entrez MAPK11), 100 nM): 100%
- remaining binding at 0.1 µM (human kinome [28]; KIT-autoinhibited): 98%
- remaining binding at 0.1 µM (human kinome [28]; KIT): 100%
- remaining binding at 0.1 µM (human kinome [29]; PKAC-alpha (Entrez PRKACA), 100 nM): 97%
- remaining binding at 1 µM (human kinome [29]; kinase PKAC-alpha (Entrez PRKACA), compound concentration 1000 nM): 100%
